From US10130724B2, “Mini-gastrin analogue, in particular for use in CCK2 receptor positive tumour diagnosis and/or treatment” (PAUL SCHERRER INSTITUT, priority 2013, dated 2018)

Assays:
[1] = system: human CCK-2 receptor transfected A431 cells; test: Biodistribution of 177Lu-labelled mini-gastrin analogues in tumour-bearing CD1 nu/nu mice; type: in vivo; details: 4 hours after injection
Experimental: PP-F11N has been investigated according to the CD1 nu/nu mice model. […] FIG. 2 illustrates the biodistribution of PP-F11, PP-F11N and oxidized PP-F11 ox (oxidized PP-F11) after 4 hours in the athymic CD1 nu/nu mice model. Tumour positive: with human CCK-2 receptor transfected A431 cells on one side of the mouse; tumor negative: CCK-2 receptor negative A431 cells on the other side of the mouse. The effect of the higher tumor uptake by the exchange of methionine with norleucine is specifically apparent with compounds having the DGlu6 sequence, different from compounds having a sequence with DGLn6 which is referred to as PP-F10.
CD1 nu/nu mice were injected with 5×10^6 A431 cells. CCK-2 receptor positive A431 cells' were injected into one flank and mock cells on the other as an unspecific control. The tumors reach a weight of about 80 to 120 mg after about 10 days. 150-200 kBq (5 pmol) of the radiolabelled peptides were injected into the tail vein. Mice were killed by CO2 asphyxiation after defined time points post injection. The organs were dissected, weighted and the activity was measured. The % injected activity per gram (% i.A./g) was calculated. The animal experiments were approved by the local animal welfare committee and performed according to national regulations.

[2] = Stability of 177Lu-labelled mini-gastrin analogues in human serum, metabolites by HPLC; type: in vitro ADME; details: compared to PP-F11, PP-F10N and PP-F10
Experimental: 12 MBq of the radiolabelled compound was incubated in 2 mL fresh human plasma. A 40 μL probe was taken after 0, 1, 2, 18, 24, 48 and 72 h and added 200 μL (50% Methanol and 50% Acetonitril) in a Mini-UniPrep Filter. The solution is filtered after vortexing. 40 μL of the filtered solution is analyzed by HPLC.

With `CCCC[C@H](NC(=O)[C@H](Cc1c[nH]c2ccccc12)NC(=O)CNC(=O)[C@H](Cc1ccc(O)cc1)NC(=O)[C@H](C)NC(=O)[C@@H](CCC(=O)O)NC(=O)[C@@H](CCC(=O)O)NC(=O)[C@@H](CCC(=O)O)NC(=O)[C@@H](CCC(=O)O)NC(=O)[C@@H](CCC(=O)O)NC(=O)[C@@H](CCC(=O)O)NC(=O)CN1CCN(CC(=O)O)CCN(CC(=O)O)CCN(CC(=O)O)CC1)C(=O)N[C@@H](CC(=O)O)C(=O)N[C@@H](Cc1ccccc1)C(N)=O` [PP-F11N] the “accumulation in the kidneys” value [1] was “very few accumulation in the kidneys” and the pharmacologic stability [2] was “highest pharmacologic stability of all probands”.
